Laboratory results published in PubChem BioAssay (NCI).
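Results reflect a 48-hour exposure of cells in 96-well plates to compound at five concentrations. At the TGI there is no net growth.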

How the values were obtained:
Test in all cases: NCI anticancer screen, dose series, 48 h
786-0 renal = tested on: 786-0 renal
A498 renal = tested on: A498 renal
A549 NSCLC = tested on: A549 NSCLC
ACHN renal = tested on: ACHN renal
CAKI-1 renal = tested on: CAKI-1 renal
CCRF-CEM leukemia = tested on: CCRF-CEM leukemia
COLO 205 colon = tested on: COLO 205 colon
DU-145 prostate = tested on: DU-145 prostate
EKVX NSCLC = tested on: EKVX NSCLC
HCC-2998 colon = tested on: HCC-2998 colon
HCT-116 colon = tested on: HCT-116 colon
HCT-15 colon = tested on: HCT-15 colon
HL-60(TB) leukemia = tested on: HL-60(TB) leukemia
HOP-62 NSCLC = tested on: HOP-62 NSCLC
HOP-92 NSCLC = tested on: HOP-92 NSCLC
HS 578T breast = tested on: HS 578T breast
HT29 colon = tested on: HT29 colon
IGROV1 ovarian = tested on: IGROV1 ovarian
K-562 leukemia = tested on: K-562 leukemia
KM12 colon = tested on: KM12 colon
LOX IMVI melanoma = tested on: LOX IMVI melanoma
M14 melanoma = tested on: M14 melanoma
MALME-3M melanoma = tested on: MALME-3M melanoma
MCF7 breast = tested on: MCF7 breast
MDA-MB-231 breast = tested on: MDA-MB-231 breast
MDA-MB-435 = tested on: MDA-MB-435
MDA-N = tested on: MDA-N
MOLT-4 leukemia = tested on: MOLT-4 leukemia
NCI-H226 lung = tested on: NCI-H226 lung
NCI-H23 lung = tested on: NCI-H23 lung
NCI-H460 lung = tested on: NCI-H460 lung
NCI-H522 lung = tested on: NCI-H522 lung
NCI/ADR-RES ovarian = tested on: NCI/ADR-RES ovarian
OVCAR-3 ovarian = tested on: OVCAR-3 ovarian
OVCAR-4 ovarian = tested on: OVCAR-4 ovarian
OVCAR-5 ovarian = tested on: OVCAR-5 ovarian
OVCAR-8 ovarian = tested on: OVCAR-8 ovarian
PC-3 prostate = tested on: PC-3 prostate
RPMI-8226 leukemia = tested on: RPMI-8226 leukemia
RXF 393 renal = tested on: RXF 393 renal
SF-268 CNS = tested on: SF-268 CNS
SF-295 CNS = tested on: SF-295 CNS
SF-539 CNS = tested on: SF-539 CNS
SK-MEL-2 melanoma = tested on: SK-MEL-2 melanoma
SK-MEL-28 melanoma = tested on: SK-MEL-28 melanoma
SK-MEL-5 melanoma = tested on: SK-MEL-5 melanoma
SK-OV-3 ovarian = tested on: SK-OV-3 ovarian
SN12C renal = tested on: SN12C renal
SNB-19 CNS = tested on: SNB-19 CNS
SNB-75 CNS = tested on: SNB-75 CNS
SR leukemia = tested on: SR leukemia
SW-620 colon = tested on: SW-620 colon
T-47D breast = tested on: T-47D breast
TK-10 renal = tested on: TK-10 renal
U251 CNS = tested on: U251 CNS
UACC-257 melanoma = tested on: UACC-257 melanoma
UACC-62 melanoma = tested on: UACC-62 melanoma
UO-31 renal = tested on: UO-31 renal

Measured: TGI

CC(=O)OC1CC2CC(=O)CC1N2C (stereo not drawn)
> 100 µM: all assays above
